Measurements: US9662323B2, “Compounds having muscarinic receptor antagonist and beta2 adrenergic receptor agonist activity” (CHIESI FARMACEUTICI S.p.A., priority 2015, dated 2017)

Legend:
Human β2 adrenoceptor = target: T1, Human β2 adrenoceptor (Homo sapiens, UniProt P07550); assay: β2 Adrenoceptor Radioligand Binding Assay; conditions: human β2 adrenoceptor membranes, 125-I Cyanopindolol; read-out: B2 binding affinity (Ki class)
T1 construct: purchased Perkin Elmer
Summary of the method: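 Membranes were incubated 1 h at room temperature in 25 mM HEPES, 0.5% BSA, 1 mM EDTA, 0.02% ascorbic acid, pH 7.4, with 0.5% DMSO final. Bound radioligand was collected by GF/C filtration and counted by scintillation. IC50 values from competition curves were converted to Ki by Cheng–Prusoff.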

Human M3 receptor = target: T2, Human M3 receptor (Homo sapiens, UniProt P20309); assay: M3 Receptor Radioligand Binding Assay; conditions: human M3 receptor membranes, [3H]-N-methyl scopolamine; read-out: M3 binding affinity (Ki class)
T2 construct: purchased Perkin Elmer
T2 sequence (P20309 whole entry): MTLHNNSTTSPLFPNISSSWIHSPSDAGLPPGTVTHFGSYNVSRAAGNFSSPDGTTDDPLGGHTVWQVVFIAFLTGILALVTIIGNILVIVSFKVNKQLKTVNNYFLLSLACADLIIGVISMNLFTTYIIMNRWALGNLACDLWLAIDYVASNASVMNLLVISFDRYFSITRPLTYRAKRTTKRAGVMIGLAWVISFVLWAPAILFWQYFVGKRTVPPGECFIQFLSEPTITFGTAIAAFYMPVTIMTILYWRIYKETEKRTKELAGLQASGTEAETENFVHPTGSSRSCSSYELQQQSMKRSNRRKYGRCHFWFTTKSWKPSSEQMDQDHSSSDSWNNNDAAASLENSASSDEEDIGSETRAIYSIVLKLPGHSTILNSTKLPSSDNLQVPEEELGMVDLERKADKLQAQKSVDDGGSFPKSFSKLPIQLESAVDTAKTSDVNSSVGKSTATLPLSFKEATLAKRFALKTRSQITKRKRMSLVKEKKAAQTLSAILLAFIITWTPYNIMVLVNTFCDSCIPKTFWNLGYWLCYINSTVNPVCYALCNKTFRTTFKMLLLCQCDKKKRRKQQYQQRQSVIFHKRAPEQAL
Summary of the method: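 Radioligand binding with 0.5% (v/v) final DMSO, incubated 2 h at room temperature with shaking. Membranes were collected on GF/C filters pre-treated with 0.5% polyethyleneimine, washed four times with assay buffer, and counted by scintillation.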

T1 sequence (P07550 whole entry): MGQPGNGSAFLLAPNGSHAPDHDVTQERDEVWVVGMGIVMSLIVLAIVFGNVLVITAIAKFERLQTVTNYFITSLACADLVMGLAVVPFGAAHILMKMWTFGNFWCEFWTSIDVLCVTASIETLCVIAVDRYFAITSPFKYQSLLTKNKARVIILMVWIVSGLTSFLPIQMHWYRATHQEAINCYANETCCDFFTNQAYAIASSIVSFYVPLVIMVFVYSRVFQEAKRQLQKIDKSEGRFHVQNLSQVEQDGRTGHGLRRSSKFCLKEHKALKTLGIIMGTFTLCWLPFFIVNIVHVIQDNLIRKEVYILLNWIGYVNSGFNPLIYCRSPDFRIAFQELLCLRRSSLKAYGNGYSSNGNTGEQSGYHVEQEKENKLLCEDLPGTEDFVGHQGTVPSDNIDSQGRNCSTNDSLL

Molecule `CCN(CCCNC[C@H](O)c1ccc(O)c2[nH]c(=O)ccc12)C(=O)c1ccc(C(=O)N2CCC(C(=O)O[C@H]3CN4CCC3CC4)(c3ccccc3)CC2)s1` [Compound 29, (R)-Quinuclidin-3-yl 1-(5-(ethyl(3-(((R)-2-hydroxy-2-(8-hydroxy-2-oxo-1,2-dihydroquinolin-5-yl)ethyl)amino)propyl)carbamoyl)thiophene-2-carbonyl)-4-phenylpiperidine-4-carboxylate] has a Ki (Human β2 adrenoceptor) of less than 1 nM and a Ki (Human M3 receptor) of 1 to 10 nM.

With `O=C(NCc1ccc(C(=O)N2CC(C(=O)O[C@H]3CN4CCC3CC4)(c3ccccc3)C2)cc1)c1ccc(CNC[C@H](O)c2ccc(O)c3[nH]c(=O)ccc23)cc1` [Compound 17A, (R)-Quinuclidin-3-yl 1-(4-((4-((((R)-2-hydroxy-2-(8-hydroxy-2-oxo-1,2-dihydroquinolin-5-yl)ethyl)amino)methyl)benzamido)methyl)benzoyl)-3-phenylazetidine-3-carboxylate] the Ki (Human β2 adrenoceptor) was less than 1 nM and the Ki (Human M3 receptor) was less than 1 nM.

In the case of `O=C(c1ccc(OCCCCCCNC[C@H](O)c2ccc(O)c3[nH]c(=O)ccc23)cc1)N1CC(C(=O)O[C@H]2CN3CCC2CC3)(c2ccccc2)C1` [Compound 2A, (R)-Quinuclidin-3-yl 1-(4-((6-(((R)-2-hydroxy-2-(8-hydroxy-2-oxo-1,2-dihydroquinolin-5-yl)ethyl)amino)hexyl)oxy)benzoyl)-3-phenylazetidine-3-carboxylate], the Ki (Human β2 adrenoceptor) is reported as less than 1 nM and the Ki (Human M3 receptor) is reported as less than 1 nM.

`O=C(c1ccc(OCCCCCNC[C@H](O)c2ccc(O)c3[nH]c(=O)ccc23)cc1)N1CC(C(=O)O[C@H]2CN3CCC2CC3)(c2ccccc2)C1` [Compound 1A, (R)-Quinuclidin-3-yl 1-(4-((5-(((R)-2-hydroxy-2-(8-hydroxy-2-oxo-1,2-dihydroquinolin-5-yl)ethyl)amino)pentyl)oxy)benzoyl)-3-phenylazetidine-3-carboxylate] gave a Ki (Human β2 adrenoceptor) of less than 1 nM and a Ki (Human M3 receptor) of 1 to 10 nM.

`O=C(Cc1ccc(OCCCCCNC[C@H](O)c2ccc(O)c3[nH]c(=O)ccc23)c(-c2ccccc2)c1)N1CCC(C(=O)O[C@H]2CN3CCC2CC3)(c2ccccc2)CC1` [Compound 15, (R)-Quinuclidin-3-yl 1-(2-(6-((5-(((R)-2-hydroxy-2-(8-hydroxy-2-oxo-1,2-dihydroquinolin-5-yl)ethyl)amino)pentyl)oxy)-[1,1′-biphenyl]-3-yl)acetyl)-4-phenylpiperidine-4-carboxylate] showed a Ki (Human β2 adrenoceptor) of less than 1 nM and a Ki (Human M3 receptor) greater than 10 nM.

`O=C(Cc1ccc(CC(=O)N2CC(C(=O)O[C@H]3CN4CCC3CC4)(c3ccccc3)C2)cc1)N(CCCNC[C@H](O)c1ccc(O)c2[nH]c(=O)ccc12)Cc1ccccc1` [Compound 14A, (R)-Quinuclidin-3-yl 1-(2-(4-(2-(benzyl(3-(((R)-2-hydroxy-2-(8-hydroxy-2-oxo-1,2-dihydroquinolin-5-yl)ethyl)amino)propyl)amino)-2-oxoethyl)phenyl)acetyl)-3-phenylazetidine-3-carboxylate] showed a Ki (Human β2 adrenoceptor) of less than 1 nM and a Ki (Human M3 receptor) of less than 1 nM.

`Cc1ccccc1CN(CCCNC[C@H](O)c1ccc(O)c2[nH]c(=O)ccc12)C(=O)Cc1ccc(CC(=O)N2CCC(C(=O)O[C@H]3CN4CCC3CC4)(c3ccccc3)CC2)cc1` [Compound 34, (R)-Quinuclidin-3-yl 1-(2-(4-(2-((3-(((R)-2-hydroxy-2-(8-hydroxy-2-oxo-1,2-dihydroquinolin-5-yl)ethyl)amino)propyl)(2-methylbenzyl)amino)-2-oxoethyl)phenyl)acetyl)-4-phenylpiperidine-4-carboxylate] showed a Ki (Human β2 adrenoceptor) of less than 1 nM and a Ki (Human M3 receptor) of less than 1 nM.

In the case of `O=C(Cc1ccc(OCc2ccc(CNC[C@H](O)c3ccc(O)c4[nH]c(=O)ccc34)cc2)cc1)N1CCC(C(=O)O[C@H]2CN3CCC2CC3)(c2ccccc2)CC1` [Compound 55, (R)-Quinuclidin-3-yl 1-(2-(4-((4-((((R)-2-hydroxy-2-(8-hydroxy-2-oxo-1,2-dihydroquinolin-5-yl)ethyl)amino)methyl)benzyl)oxy)phenyl)acetyl)-4-phenylpiperidine-4-carboxylate], the Ki (Human β2 adrenoceptor) is reported as less than 1 nM and the Ki (Human M3 receptor) is reported as less than 1 nM.
